In patent US20090123391A1, “Novel Formulations” (3M INNOVATIVE PROPERTIES COMPANY, priority 2006, published 2009):

What was measured:
[1] = Dose Through Unit (DTU) dose uniformity of MDI; type: physicochemical; conditions: for overall mean dose of medicament delivered through the actuator, combining beginning and end of use doses / overall mean dose delivered through the actuator, combined beginning and end of use: HFA 134a; for overall mean dose delivered through the actuator, combining beginning and end of use: Example 4: Compound A in combination with Compound D, HFA-134a MDI 100/100 μg/act, target output compound D 90 μg, compound A 90 μg; for overall mean dose delivered through the actuator, combined beginning and end of use: Example 5: Compound E in combination with Compound A, MDI 100/50 μg/act, target output Compound E 90 μg, Compound A 45 μg
Protocol: The dose collection apparatus (500 ml separatory funnel with a cotton plug) was assembled and the flow rate was set to 20 L/min. Test units were stored at ambient conditions for two weeks after manufacture prior to DTU testing. For the testing at the beginning of the unit, the MDIs were primed two times with a priming actuator and four times to waste with the test actuator, shaking the units between each actuation. Two test actuations were collected in the dose collection apparatus, shaking the unit between actuations. The collection apparatus was rinsed with an appropriate volume of diluent, and the rinsate with the collected dose was analyzed by conventional HPLC analysis. For end of unit testing, the MDIs were actuated an additional 48 times to waste, shaking between each actuation. The MDIs were then actuated four times to waste through a new test actuator. Two test actuations were then collected in the dose collection apparatus, shaking the unit between actuations. The collection apparatus was rinsed with an appropriate volume of diluent, and the rinsate with the collected dose was analyzed by conventional HPLC analysis.
The reported results are the average of ten units at both the beginning and end of unit use.

[2] = Andersen Cascade Impactor (ACI) fine particle fraction of MDI; type: physicochemical; conditions: for Fine Particle Fraction (FPF) expressed as percentage of 25 μg, the total dose target: Example 1: Compound A MDI, 25 μg/act; for Fine Particle Fraction (FPF) expressed as percentage of 25 μg, the total dose target / Fine Particle Fraction expressed as a percentage of the total dose target, for Compound B, 10 μg and for the Compound A, 25 μg / Fine Particle Fraction (FPF) expressed as a percentage of the total dose target, for Compound C, 12.5 μg and for Compound A, 25 μg / Fine Particle Fraction (FPF) expressed as percentage of the total dose target of Compound E, 100 μg and for Compound A, 50 μg: HFA 134a; for Fine Particle Fraction expressed as a percentage of the total dose target, for Compound B, 10 μg and for the Compound A, 25 μg: Example 2: Compound A in combination with Compound B; for Fine Particle Fraction expressed as a percentage of the total dose target, for Compound B, 10 μg and for the Compound A, 25 μg / Fine Particle Fraction (FPF) expressed as a percentage of the total dose target, for Compound C, 12.5 μg and for Compound A, 25 μg: MDI; for Fine Particle Fraction (FPF) expressed as a percentage of the total dose target, for Compound C, 12.5 μg and for Compound A, 25 μg: Example 3: Compound A in combination with Compound C, 25/12.5 μg/act; for Fine Particle Fraction (FPF) expressed as a percentage of the total dose target, for Compound D, 100 μg, and for Compound A, 100 μg: Example 4: Compound A in combination with Compound D, HFA-134a MDI 100/100 μg/act; for Fine Particle Fraction (FPF) expressed as percentage of the total dose target of Compound E, 100 μg and for Compound A, 50 μg: Example 5: Compound E in combination with Compound A, MDI 100/50 μg/act
Source text: The fine particle fraction of the aerosol formulations according to the invention may be measured by conventional techniques, for example, by cascade impaction by measuring particle size distribution. The Cascade Impactor is designed to mimic the human buccal cavity and bronchial tract and the cascade Impactor test is designed to reveal the amount of deposition of inhaled drug substance at various stages thereof. As used herein reference to the “cascade impaction” assay means determination of the deposition of the emitted dose in pressurised inhalations as defined in European Pharmacopoeia, Section 2.9.18, 5th edition “Preparations for Inhalation, Apparatus D”. Such techniques enable the “respirable fraction” of the aerosol formulations to be calculated. One method used to calculate the “respirable fraction” is by reference to “fine particle fraction” which is the amount of active ingredient collected in stages 3 to 5 (aerodynamic diameter 1.1-4.7 μm) which represents the lung, per actuation expressed as a percentage of the total amount of active ingredient delivered per actuation using the cascade impactor method described above. Earlier stages represent the aerosol device itself, the throat and the upper reaches of the bronchial tract, and the later stages representing potential systemic absorption through the wall of the lung which may cause serious side effects.
The Andersen Cascade Impactor Mark II (ACI) was assembled and the flow rate was set to 28.3 L/min. The units were primed four times with the test actuator prior to dose collection, shaking between actuations. Between 5 and 20 actuations were collected in the ACI assembly. The ACI was disassembled and the components were rinsed with an appropriate amount of solvent that ensures dissolution of all formulation ingredients. The rinsate was collected for analysis by conventional HPLC analysis.

[3] = 0.1% w/w of polymer of formula (II), 12 Week at 40° C./75% relative humidity
[4] = 0.1% w/w of polymer of formula (II), Initial
[5] = surfactant-free, 12 Week at 40° C./75% relative humidity

- overall mean dose of medicament delivered through the actuator, combining beginning and end of use doses ([1]; Example 1: Compound A MDI, 25 μg/act, 0.1% w/w of polymer of formula (II), 12 Week at 40° C./75% relative humidity, target output 22.5 μg/act): 98%
- overall mean dose of medicament delivered through the actuator, combining beginning and end of use doses ([1]; Example 1: Compound A MDI, 25 μg/act, 0.1% w/w of polymer of formula (II), Initial, target output 22.5 μg/act): 98%
- overall mean dose of medicament delivered through the actuator, combining beginning and end of use doses ([1]; Example 1: Compound A MDI, 25 μg/act, surfactant-free, 12 Week at 40° C./75% relative humidity, target output 22.5 μg/act): 72%
- overall mean dose of medicament delivered through the actuator, combining beginning and end of use doses ([1]; Example 1: Compound A MDI, 25 μg/act, surfactant-free, Initial, target output 22.5 μg/act): 66%
- overall mean dose of medicament delivered through the actuator, combining beginning and end of use doses ([1]; Example 2: Compound A in combination with Compound B, MDI, 25/10 μg/act, 0.1% w/w of polymer of formula (II), 12 Week at 40° C./75% relative humidity, target output Compound B 8.5 μg, Compound A 22.5 μg): 110%
- overall mean dose of medicament delivered through the actuator, combining beginning and end of use doses ([1]; Example 2: Compound A in combination with Compound B, MDI, 25/10 μg/act, 0.1% w/w of polymer of formula (II), Initial, target output Compound B 8.5 μg, Compound A 22.5 μg): 107%
- overall mean dose of medicament delivered through the actuator, combining beginning and end of use doses ([1]; Example 2: Compound A in combination with Compound B, MDI, 25/10 μg/act, surfactant-free, 12 Week at 40° C./75% relative humidity, target output Compound B 8.5 μg, Compound A 22.5 μg): 62%
- overall mean dose of medicament delivered through the actuator, combining beginning and end of use doses ([1]; Example 2: Compound A in combination with Compound B, MDI, 25/10 μg/act, surfactant-free, Initial, target output Compound B 8.5 μg, Compound A 22.5 μg): 63%
- overall mean dose of medicament delivered through the actuator, combining beginning and end of use doses ([1]; Example 3: Compound A in combination with Compound C, MDI, 25/12.5 μg/act, 0.1% w/w polymer of formula (II), 12 Week at 40° C./75 relative humidity, target output Compound C 11.3 μg, Compound A 22.5 μg): 107%
- overall mean dose of medicament delivered through the actuator, combining beginning and end of use doses ([1]; Example 3: Compound A in combination with Compound C, MDI, 25/12.5 μg/act, 0.1% w/w polymer of formula (II), Initial, target output Compound C 11.3 μg, Compound A 22.5 μg): 101%
- overall mean dose of medicament delivered through the actuator, combining beginning and end of use doses ([1]; Example 3: Compound A in combination with Compound C, MDI, 25/12.5 μg/act, surfactant-free, 12 Week at 40° C./75 relative humidity, target output Compound C 11.3 μg, Compound A 22.5 μg): 76%
- overall mean dose of medicament delivered through the actuator, combining beginning and end of use doses ([1]; Example 3: Compound A in combination with Compound C, MDI, 25/12.5 μg/act, surfactant-free, Initial, target output Compound C 11.3 μg, Compound A 22.5 μg): 75%
- overall mean dose delivered through the actuator, combining beginning and end of use [1, 3]: 111%
- overall mean dose delivered through the actuator, combining beginning and end of use [1, 4]: 106%
- overall mean dose delivered through the actuator, combined beginning and end of use [1, 3]: 109%
- overall mean dose delivered through the actuator, combined beginning and end of use [1, 4]: 104%
- Fine Particle Fraction (FPF) expressed as percentage of 25 μg, the total dose target [2, 3]: 22%
- Fine Particle Fraction (FPF) expressed as percentage of 25 μg, the total dose target [2, 4]: 24%
- Fine Particle Fraction (FPF) expressed as percentage of 25 μg, the total dose target [2, 5]: 16%
- Fine Particle Fraction (FPF) expressed as percentage of 25 μg, the total dose target ([2]; surfactant-free, Initial): 17%
- Fine Particle Fraction expressed as a percentage of the total dose target, for Compound B, 10 μg and for the Compound A, 25 μg [2, 3]: 35%
- Fine Particle Fraction expressed as a percentage of the total dose target, for Compound B, 10 μg and for the Compound A, 25 μg [2, 4]: 32%
- Fine Particle Fraction expressed as a percentage of the total dose target, for Compound B, 10 μg and for the Compound A, 25 μg [2, 5]: 18%
- Fine Particle Fraction expressed as a percentage of the total dose target, for Compound B, 10 μg and for the Compound A, 25 μg ([2]; surfactant-free, Initial): 18%
- Fine Particle Fraction (FPF) expressed as a percentage of the total dose target, for Compound C, 12.5 μg and for Compound A, 25 μg ([2]; 0.1% w/w polymer of formula (II), 12 Week 40° C./75 relative humidity): 20%
- Fine Particle Fraction (FPF) expressed as a percentage of the total dose target, for Compound C, 12.5 μg and for Compound A, 25 μg ([2]; 0.1% w/w polymer of formula (II), Initial): 21%
- Fine Particle Fraction (FPF) expressed as a percentage of the total dose target, for Compound C, 12.5 μg and for Compound A, 25 μg ([2]; surfactant-free, 12 Week 40° C./75 relative humidity): 16%
- Fine Particle Fraction (FPF) expressed as a percentage of the total dose target, for Compound C, 12.5 μg and for Compound A, 25 μg ([2]; surfactant-free, Initial): 11%
- Fine Particle Fraction (FPF) expressed as a percentage of the total dose target, for Compound D, 100 μg, and for Compound A, 100 μg [2, 3]: 19%
- Fine Particle Fraction (FPF) expressed as a percentage of the total dose target, for Compound D, 100 μg, and for Compound A, 100 μg [2, 4]: 21%
- Fine Particle Fraction (FPF) expressed as percentage of the total dose target of Compound E, 100 μg and for Compound A, 50 μg [2, 3]: 22%
- Fine Particle Fraction (FPF) expressed as percentage of the total dose target of Compound E, 100 μg and for Compound A, 50 μg [2, 4]: 23%
Compound: C[C@@H]1C[C@H]2[C@@H]3C[C@H](F)C4=CC(=O)C=C[C@]4(C)[C@@]3(F)[C@@H](O)C[C@]2(C)[C@@]1(OC(=O)c1ccco1)C(=O)SCF [Compound A, 6α, 9α-Difluoro-17α-[(2-furanylcarbonyl)oxy]-11β-hydroxy-16α-methyl-3-oxo-androsta-1,4-diene-17β-carbothioic acid S-fluoromethyl ester]
